Results reported in article PMC4621507, “Characterization of 2,4-Diamino-6-oxo-1,6-dihydropyrimidin-5-yl Ureido Based Inhibitors of Trypanosoma brucei FolD and Testing for Antiparasitic Activity” (Journal of Medicinal Chemistry, 2015).
Values joined by “and” are separate entries in the source; they are usually repeats but may differ in a detail not shown here. Identical values can stand only once.

How the values were obtained:
TbFolD = assay: FolD dehydrogenase enzyme inhibition assay; assay type: biochemical, Trypanosoma brucei; settings: for increase of the inhibitory potency compared to that of compound 2: TbFolD, from Ki; for FolD inhibition IC50 / FolD inhibition Ki: recombinant TbFolD, dehydrogenase activity; for FolD inhibition IC50: 35 μM mTHF, 1 mM NADP+, 27 °C, pH 7.3; for FolD inhibition Ki: data fitted to a competitive model
Description: The dehydrogenase activity of FolD was measured spectrophotometrically, using a Beckman DU-640 spectrophotometer, following the formation of 5,10-CH=THF from 5,10-CH2-THF. 5,10-CH2-THF dehydrogenase assays were carried out in a 0.5 mL volume at 27 °C and contained 25 mM MOPS, pH 7.3, 30 mM 2-mercaptoethanol, 35 μM mTHF, and 1 mM NADP^+. The Km values of substrate and cofactor having been previously elucidated as approximately 35 and 70 μM. The reaction was initiated by the addition of NADP^+ and incubated for 5 min then stopped by the addition of an equal volume of 1 M HCl and the 5,10-CH=THF produced quantified at 350 nm, using an extinction coefficient of 24.9 mM^–1 cm^–1. The enzyme activity was expressed as μ moles 5,10-CH=THF produced per minute. Enzyme inhibition was measured using the dehydrogenase assay, with stocks of compounds dissolved in DMSO (10 mM). The concentration of compound in the first test was 0–50–100 μM. Data from inhibition assays were fitted to a competitive model by linear regression using Origin (OriginLab Corporation). […]
with 50 mM bicine, 250 mM NaCl, 0.5 mM DTT, 10 % glycerol pH 8.0. The typical yield of protein was approximately 7 mg/L of cell culture. The addition of 10% glycerol in all buffers was required to prevent loss of activity when the samples were flashyfrozen.
The dehydrogenase activity of FolD was measured spectrophotometrically, using a Beckman DUy 640 spectrophotometer, following either the formation of 5,10yCH=THF from 5,10yCH2yTHF (DH activity). 5,10yCH2yTHF dehydrogenase assays were carried out in a 0.5 mL volume at 27 °C and contained 25 mM MOPS, pH 7.3, 30 mM 2ymercaptoethanol 35 µM mTHF, 1 mM NADP+. The reaction was initiated by addition of NADP+ and incubated for 5 minutes then stopped by the addition of an equal volume of 1 M HCl and the 5,10yCH=THF produced quantified at 350 nm, using a extinction coefficient of 24.9 mM−1 cm−1. DH activity was expressed as µ moles 5,10y CH=THF produced per minute. Enzyme inhibition was measured using the dehydrogenase assay, with stocks of compounds dissolved in DMSO (10 mM). The concentration of compound in the first test was 0y50y100 µM. Data from inhibition assays were fitted to competitive model by linear […]
The bloodstreamyform T. brucei brucei strain 427 was grown in HMIy9 medium – 17.66 mg/mL IMDM (Gibco), 3.020 mg/mL sodium bicarbonate (SigmayAldrich), 0.136 mg/mL hypoxanthine (SigmayAldrich), 0.039 mg/mL thymidine (SigmayAldrich) and 0.028 mg/mL bathocuproine sulfonic acid (SigmayAldrich) y supplemented with 10% heatyinactivated fetal bovine serum (FBS) (BioWhittaker), 1.5 mM Lycysteine hydrochloride monohydrate (Merck), 0.2 mM βy mercaptoethanol (SigmayAldrich), 100 U/mL penicillin and 100 U/mL streptomycin (BioWhittaker) at 37 °C under a humidified 5% CO2 atmosphere. Cultures were grown in T25 or T75 vented cap culture flasks (Sarstedt) and subycultured every 2y3 days by 100 to 1000yfold dilution, respectively.
Parasites were counted directly using a Neubauer chamber (Marienfeld) and diluted appropriately in […]
In vitro growth inhibition assays

L. major FolD = target: L. major FolD; design: method as in PMID 22108435, PMID 23050773; settings: competitive inhibitor; cited from earlier work
human FolD = target: human FolD; design: method as in PMID 22108435, PMID 23050773; settings: competitive inhibitor; cited from earlier work
[1] = target: Pseudomonas aeruginosa FolD; design: method as in PMID 22108435, PMID 23050773; settings: competitive inhibitor; cited from earlier work
[2] = test system: THP1 differentiated macrophages; assay: Cytotoxicity, colorimetric MTT assay; assay type: cell-based; settings: human THP1 differentiated macrophages, 72 h, read-out: THP1 in vitro growth inhibition IC50
Description: The cytotoxicity of the compounds under study was assessed by a colorimetric MTT assay.[26],[27] THP1 differentiated macrophages were seeded at a density of 10^5 cells/well in 96-well plates and allowed to adhere overnight. Cells were incubated with the compound concentration range for 72 h at 37 °C. At the end of the incubation period, 200 μL of 0.5 mg/mL MTT reagent (thiazolyl blue tetrazolium bromide, Sigma) solution was added to each well. The plates were further incubated for 4 h at 37 °C in the dark. The culture medium was subsequently discarded, and 200 μL of isopropanol was added to dissolve the dark-blue formazan crystals. Cell viability was quantified spectrophotometrically by measuring the absorbance of the formazan product at wavelength 570 nm and the background at 660 nm with a microplate reader (Synergy 2, Biotek, USA). The data are expressed as the percentages of viable cells compared to the survival of a control group (untreated cells). […]
additional 4 h and then the fluorescence read in a microplate reader (Sinergy 2, BioTek) using an […]
calculated by linear regression.
The cytotoxicity of the compounds under study was assessed by a colorimetric MTT assay. […]
added to dissolve the darkyblue formazan crystals. Cell viability was quantified
spectrophotometrically by measuring the absorbance of the formazan product at the wavelength of […]

[3] = target: Trypanosoma brucei N5,N10-methylenetetrahydrofolate dehydrogenase/cyclohydrolase (FolD) (Trypanosoma brucei (Lister 927 strain)); assay: SEC; size exclusion chromatography (gel filtration) of recombinant TbFolD in solution; conditions not given in the main text
[4] = Solubility in organic solvents (crystallization trials); assay type: physicochemical; settings: room temperature, with the exception of DMSO
Source text: We therefore tried to grow crystals from DMSO (in different conditions) and from mixtures of DMSO/CH3CN. Eventually, crystallization by slow evaporation (16 days) of a solution of 3 in reagent-grade DMSO (Sigma-Aldrich) at room temperature produced small plates suitable for the determination of the molecular connectivity. After testing several samples, a specimen (0.25 × 0.20 × 0.05 mm^3) grown at the liquor/air interface was selected for the crystallographic analysis. The specimen manifested a significant pleochroism (colorless to violet) under polarized light. It was mounted on the top of a glass capillary fiber in dense perfluorinated oil. The X-ray data collection was performed at room temperature on a 3-circle Bruker SMART APEX goniometer equipped with a CCD APEX-II detector, using graphite-monochromated Mo Kα radiation (λ = 0.71073 Å). A total of 26180 reflections (8144 unique) were recorded up to (sin ϑ/λ)MAX = 0.5017 Å^–1. A high exposure time (120 s/frame) was employed due to the small dimensions of the sample and its very low scattering power.

Row | Compound | FolD inhibition IC50 (TbFolD) | FolD inhibition Ki (TbFolD) | also measured
1 | Nc1nc(N)c(NC(=O)Nc2ccc(C(=O)N[C@@H](Cc3ccccc3)C(=O)O)cc2)c(=O)[nH]1 [Compound 18, (S)-2-(4-(3-(2,4-Diamino-6-hydroxypyrimidin-5-yl)ureido)benzamido)-3-phenylpropanoic Acid] | 1100 ± 250 nM | 540 nM and 540 ± 80 nM | increase of the inhibitory potency compared to that of compound 2 (TbFolD): 2 fold
2 | Nc1nc2c(c(=O)[nH]1)N1C(=O)N(c3ccc(C(=O)NC(CCC(=O)O)C(=O)O)cc3)CC1CN2 (stereo not shown) [Compound 21, reference compound] | 20000 ± 1200 nM | 8500 nM and 8500 ± 500 nM | Ki L. major FolD (L. major FolD): 105 nM; Ki human FolD (human FolD): 29 nM; Ki Pseudomonas aeruginosa FolD [1]: 30 nM
3 | Nc1nc(N)c(NC(=O)Nc2ccc(C(=O)N[C@@H](CCC(=O)O)C(=O)O)cc2)c(=O)[nH]1 [Compound 2, (S)-2-(4-(3-(2,4-Diamino-6-oxo-1,6-dihydropyrimidin-5-yl)ureido)benzamido)pentanedioic Acid] | 2200 nM and 2200 ± 500 nM | 1100 nM and 1100 ± 800 nM | –
4 | C[C@H](NC(=O)c1ccc(NC(=O)Nc2c(N)nc(N)[nH]c2=O)cc1)C(=O)O [Compound 17, (S)-2-(4-(3-(2,4-Diamino-6-hydroxypyrimidin-5-yl)ureido)benzamido)propanoic Acid] | 6300 ± 800 nM | 3200 ± 300 nM | –
5 | (S)-2-(4-(3-(2,4-diamino-6-hydroxypyrimidin-5-yl)ureido)benzamido)hexanedioic Acid [Compound 16] | 1000 ± 300 nM | 480 nM and 480 ± 700 nM | increase of the inhibitory potency compared to that of compound 2 (TbFolD): 2 fold; IC50 [2]: 90000 ± 16000 nM
6 | Trypanosoma brucei N5,N10-methylenetetrahydrofolate dehydrogenase/cyclohydrolase (FolD) (enzyme) | – | – | stoichiometry N [3]: 2
7 | Nc1nc(N)c(NC(=O)Nc2ccc(C(=O)NCCCC(=O)O)cc2)c(=O)[nH]1 [Compound 20, 4-(4-(3-(2,4-Diamino-6-hydroxypyrimidin-5-yl)ureido)benzamido)butanoic Acid] | 213000 ± 18000 nM | 168000 ± 8500 nM | –
8 | Nc1nc(N)c(NC(=O)Nc2ccc(C(=O)N[C@@H](Cc3ccc(O)cc3)C(=O)O)cc2)c(=O)[nH]1 [Compound 19, (S)-2-(4-(3-(2,4-Diamino-6-hydroxypyrimidin-5-yl)ureido)benzamido)-3-(4-hydroxyphenyl)propanoic Acid] | 9300 ± 900 nM | 7300 ± 700 nM | –
9 | CCOC(=O)c1ccc(NC(=O)Nc2c(N)nc(N)[nH]c2=O)cc1 [Compound 3, Ethyl 4-(3-(2,4-diamino-6-oxo-1,6-dihydropyrimidin-5-yl)ureido)benzoate] | – | – | solubility in most organic solvents [4]: poorly soluble
